Common to all, as to design: species or system Brassica
Test [1] deals with non-transgenic microspores. Description: Selection kill curve using Geneticin (G418): embryo growth and survival in liquid medium. The source says: The objective was to determine the concentration of G418 that kills non-transgenic microspores.
(§1) Prior to this experiment, selection was done on solid medium, not in liquid medium. Using liquid selection for Brassica transgenic cells is novel. Selection in liquid medium is advantageous for at least the following reasons: (a) it allows selection at an early stage, thereby eliminating the need for subsequent transfers of explants, (b) it allows for a cleaner selection because the explants are generally smaller when they are in liquid medium and the liquid allows all the surfaces of the explant to be exposed to the selection agent, (c) it may reduce the frequency of chimeras, and (d) a lower amount of the selection agent is needed therefore reducing the toxicity to the researcher and the environment. The effect of various concentrations of kanamycin on embryo growth in liquid medium was tested. […] Accordingly, it was difficult to discriminate transgenic tissue or embryos from non-transgenic.

Test [2] has as its system pre-incubated microspores bombarded with PHP22021 and PHP22024. Description: Glyphosate resistant embryo selection in liquid medium NLN-6.5S after bombardment. How it is done: Pre-incubated microspores were used as bombarded materials. Any Brassica line that is capable of regenerating by microspore culture can be used. The microspores were cultured for 1-3 days in NLN-17S at 31.5° C, and then in NLN-10S for 4-5 days at 25° C. The constructs used in the bombardments were PHP18644, PHP21965, PHP22024, PHP22021, and PHP23560 (see Table 9). The constructs can be the full plasmid or the expression cassette only. For example, PHP22024 can be either the expression cassette or the full plasmid. The pre-incubated microspores were filtrated with sieves of pore size of […] to 36 μm. The collected microspores were used for bombardment. The microspores were loaded on a sieve 15 μm or 20 μm on two layers of filter-paper and dried for less than one minute. The microspores and sieves were transferred to osmotic medium that contained B5 components, 1 g/l MES and 0.8-1.6% gelrite, 15-21% sucrose (pH 6.0). The microspores were treated for at least one hour on the osmotic medium before bombardment. The pre-incubated microspores were bombarded with 12.5 ng to 5 μg DNA per preparation, 15-100 μg Au particles per shot, 2.5 M CaCl2, and 650-900 psi rupture disk. […] Resistant embryos were recorded after two to three weeks of culture. […]

For a further test, the system named is non-bombarded embryos. Briefly: Effect of kanamycin on embryo growth in liquid medium, non-bombarded embryos.
Text: as §1

Three compounds from US20070107077A1, “Microprojectile bombardment transformation of brassica” (Pioneer Hi-Bred International, Inc., priority 2005, published 2007) can be followed below.

Several values for one entry are separate records, joined by “and”; a condition that tells them apart may be missing. Identical values can stand only once. Counter-ions that a name gives are not always drawn.

Regarding `CN[C@@H]1[C@@H](O)[C@@H](O[C@@H]2[C@@H](O)[C@H](O[C@H]3O[C@H]([C@@H](C)O)[C@@H](O)[C@H](O)[C@H]3N)[C@@H](N)C[C@H]2N)OC[C@]1(C)O` [G418, G418 disulfate salt], the “# Green embryos or with green island” value in test [1] (G418 1.25 mg/l, disulfate salt) is 30 (paler) and 28 (paler); in test [1] (G418 2.5 mg/l, disulfate salt) it was 14 (light green, smaller size) and 11 (light green, smaller size); in test [1] (G418 5 mg/l) it was 0; in test [1] (G418 10 mg/l), 0. In addition, the “concentration sufficient to differentiate transformed cells from untransformed cells (cleaner selection)” value in test [1] (NLN with 6.5% sucrose medium) fell in the range of 5 to 10 mg/L.

Consider `O=C(O)CNCP(=O)(O)O` [Glyphosate, glyphosate], for which the “# embryos (abnormal)/plate” value in test [2] (glyphosate 0.2 mM, plasmid PHP22021) was found to be 0. Moreover, the “selection efficiency, false positives” value in test [2] (selection at 0.2 mM compared with 0.1 mM glyphosate) is given as “fewer false positive results”.

`NC[C@H]1O[C@H](O[C@H]2[C@H](O)[C@@H](O[C@H]3O[C@H](CO)[C@@H](O)[C@H](N)[C@H]3O)[C@H](N)C[C@@H]2N)[C@H](O)[C@@H](O)[C@@H]1O` [kanamycin]: in the test with non-bombarded embryos, the “concentration sufficient to bleach non-bombarded embryos and inhibit non-bombarded embryo growth” value was 10 mg/L.
